Experiments:
human fibroblasts = experiment: Cell proliferation of fibroblasts; format: cell-based; conditions: Fibroblast, 72 hours, CYQUANT, read-out: IC50 cell proliferation of fibroblasts
Procedure, shortened: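 Human fibroblasts plated at 600 cells/well, attached overnight, then exposed to drug in triplicate for 72 h at 37°C. Cell content read with CYQUANT GR dye in lysis buffer after 3-5 min at room temperature.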

[1] = test system: MCP-1 production by THP-1 cells; experiment: MCP-1 production by macrophages; format: cell-based, human; conditions: Homo sapiens; THP-1 cells stimulated with opsonized zymosan, 24 hours; read-out: IC50 MCP-1 production
Procedure, shortened: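 THP-1 cells (1×10^6/well, 10% FCS) stimulated with 1 mg/ml serum-opsonized zymosan plus compound added from DMSO stocks at 1/1000, 24 h at 37° C. MCP-1 in supernatants quantified by sandwich ELISA (TMB read-out) against a recombinant human MCP-1 standard curve, triplicates, background-subtracted.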

Compound | IC50 (human fibroblasts) [nM] | IC50 [1] [nM]
CC1=C(O)C(=O)C=C2C1=CC=C1[C@@]2(C)CC[C@@]2(C)[C@@H]3C[C@](C)(C(=O)O)CC[C@]3(C)CC[C@]12C [celastrol] | 100 to 600 | 421
COc1c(C)c2c(c(O)c1C/C=C(\C)CCC(=O)O)C(=O)OC2 [mycophenolic acid] | 100 to 600 | 764

Source: patent publication US20090226500A1, “SUTURES AND ANTI-SCARRING AGENTS” (Angiotech Pharmaceuticals, Inc, priority 2006, published 2009)
